Key:
[1] = system: SU-DHL-10 cell line (human B cell lymphoma); test: Cell cytotoxicity in SU-DHL-10 cell line (CellTiter-Glo); assay type: cell-based; conditions: 72 h treatment, CTG
Method: Certain Example compounds of the invention and Comparator Compound 1 were tested in the SU-DHL-10 cell line (human B cell lymphoma). Compounds which show efficacy in this assay are expected to be useful as agents for treating or preventing hyperproliferative disorders such as cancer.
Cells were seeded in 96-well microplates and treated with compounds or cisplatin (as a positive control) at 9 increasing concentrations in technical triplicate. […] On day 1, 90 μL of various cell suspensions with the number of cells ranging from 5000-8000 cells/well were seeded into wells of a 96-well plate (Corning). The number of cells to be seeded was previously determined. • 2. All 96-wells plates with cells were placed in an incubator overnight at 37° C. with 5% CO2. • 3. On day 2, cells were observed under a microscope ensuring the cells treated with vehicle control were in good condition. • 4. A dilution series of the test compounds and cisplatin were prepared at 10× the final concentrations required. 10 μL/well of 10× compound solution was added to the corresponding plates. The final volume was 100 μL/well for all the plates. Final DMSO concentration was 0.1%. • 5. On day 5 (after 72 hours of incubation), 50 μL of CTG reagent was added to each well. • 6. Contents were mixed for 5 minutes on an orbital shaker to facilitate cell lysis. • 7. The plate was allowed to incubate at room temperature for 10 minutes to stabilize luminescent signals.
Luminescence was recorded using an EnVision Multi Label Reader. Data analysis was performed using GraphPad Prism 8.0.
To calculate IC50, a concentration-response curve was generated using a nonlinear regression model with a sigmoidal concentration response. The formula for calculating the % of viable cells was shown below, and the IC50s are automatically generated by GraphPad Prism 8.0.
(LumTest article=luminescence in test article treated well; LumNone treated=luminescence in vehicle treated well; LumMedium control=luminescence in a well containing only medium and no cells; LumNone treated-LumMedium control was set as 100%)

Caco-2 cells = test: Caco-2 cell permeability assay; assay type: in vitro ADME; conditions: 2 μM, pH 7.4, 2.5 h; for Caco-2 A-B: apical to basal Papp; for Caco-2 B-A: basal to apical Papp
Method: (§1) Certain Example compounds and Comparative Example 1 were tested for their apical to basal (AB) and basal to apical (BA) permeability in Caco-2 cells.
(§2) Cell Culture: Caco-2 cells were grown for 10 days in 96-well plates in HBSS buffer containing 10 mM HEPES. Both the apical and basal pH was buffered at pH 7.4. The apical/basal volumes were 75 μl and 250 μl respectively. The incubation time was 2.5 h at 37° C. (without shaking) under 5% CO2 & 95% relative humidity.
(§3) Cell Seeding: Cells were seeded at a density of 18750 cells/well (membrane area=0.0804 cm^2) in a 96 well plate.
(§4) AB Assay: 75 μl of cell suspension was added at a density 2.5×10^5 cells/ml to the apical wells. 40 ml media was added to the feeder tray. The plates were placed in the incubator (37° C., 5% CO2 and controlled humidity). The Caco-2 cells were grown for 10 days with a media change on every alternate day.
(§5) BA Assay: 25 μl of cell suspension was added at a density of 7.5×10^5 cells/ml to the bottom side (keeping the plate upside down) of apical wells. The plate (upside down position) was placed in the incubator (37° C., 5% CO2 and 95% Relative humidity) for 2 h. The plate was turned right side up. 75 μl media was added to the apical wells and 40 ml media to the feeder tray.
(§6) Permeablity Assay: The apical and basal wells were washed with buffer (pH 7.4) and 250 μl buffer was added to the wells of the basal plate. 75 μl of compound solution (2 μM, dissolved in water with 1% DMSO) was transferred to the apical wells (n=2). The apical plate was placed onto the basal plate. The lid was placed on to prevent evaporation. The assembly was incubated at 37° C. for 2.5 h (without shaking) under 5% CO2 and 95% relative humidity. After incubation the apical plate was separated from the basal plate. Aliquots were taken out from the acceptor and donor wells, diluted and quantified using LC-MS/MS along with initial donor samples.
(§7) Membrane Integrity Test: Solution in the apical wells was discarded by inverting the plate and soaking onto tissue paper. 250 μl buffer (pH 7.4) was added to each well of basal plate and 75 μl of Lucifer Yellow (LY; 0.1 mg/ml) in buffer (pH 7.4) to the wells of apical plate. The apical plate was placed onto the basal plate and the lid used to prevent evaporation. The assembly was incubated at 37° C. for 1 h (without shaking) under 5% CO2 and 95% relative humidity. The apical plate was separated from the basal plate. Fluorescence (Ex: 432 nm, Em: 530 nm) of aliquots (100 ul) was measured from basal wells. Fluorescence of 100 μl buffer (pH 7.4) and 100 μl LY(0.1 mg/ml) was also measured. Wells having more than 1% fluorescence intensity with respect to 0.1 mg/ml LY were considered non-integrated membrane. Such wells, if any, were not considered for permeability calculation.
(§8) Calculation: Drug was detected and quantified by LC-MS/MS. Data generated took the form of an apparent permeability (Papp) value. Papp=[Va/(AreaxTime)]×(LC-MS Area of Acceptor sample×Sample dilution factor/LC-MS Area of Initial Donor). Va=Volume of Acceptor Well (in ml)=0.25, Vd=Volume of Donor Well (in ml)=0.075, Area=Surface area of the membrane (cm2)=0.0804, Time=Time of incubation (sec)=9000 Results: The results of the assay are shown in Table 3 below.

[2] = Caco-2 cell permeability assay; assay type: in vitro ADME; conditions: human, Caco-2, pH 7.4, basal to apical Papp, pH 7.4, 2.5 h
Method: as §1, §2, §3, §4, §5, §6, §7, §8

JIMT-1 tumour cells = test: JIMT-1 breast cancer xenograft model; assay type: in vivo, NOD/SCID mice
Method: 80 mice were assigned to 8 treatment groups when tumour volumes averaged ˜160.66 mm^3 on Study Day 0. Dosing commenced the following day and all animals were dosed intravenously with ADC Example 3, sacituzumab govitecan or unconjugated sacituzumab. The study was terminated on the Study Day 60.

[3] = 2.5 mg/kg IV QW × 2 weeks (Group 5 also got ADC Example 3 5 mg/kg on Day 27)
[4] = 5 mg/kg IV QW × 2 weeks (Group 4 also got ADC Example 3 5 mg/kg on Day 27)

Compound | IC50 [1] [nM] | Caco-2 A-B (Caco-2 cells) [×10⁻⁶ cm/s] | Papp B→A at 2.5 h, 2 μM [2] [×10⁻⁶ cm/s] | further results
Cc1c(CCOc2cc(F)ccc2-c2ccc3ncc(CN(C)C)n3c2)c(C(C)O)nn1C (single isomer, unassigned) [Example 3, 1-(4-(2-(2-(3-((dimethylamino)methyl)imidazo[1,2-a]pyridin-6-yl)-5-fluorophenoxy)ethyl)-1,5-dimethyl-1H-pyrazol-3-yl)ethan-1-ol] | 9.4 | 1.2 | 22.6 | 
Cc1c(CCOc2cc(F)ccc2-c2ccc3ncc(CN(C)C)n3c2)c(C(C)O)nn1C (single isomer, unassigned) [Example 4, 1-(4-(2-(2-(3-((dimethylamino)methyl)imidazo[1,2-a]pyridin-6-yl)-5-fluorophenoxy)ethyl)-1,5-dimethyl-1H-pyrazol-3-yl)ethan-1-ol] |  | 1.3 |  | IC50 ([1]; Homo sapiens, SU-DHL10, 72 h): 12 nM; Caco-2 B-A (Caco-2 cells): 24.9 ×10⁻⁶ cm/s
CNCc1cnc2ccc(-c3ccc(F)cc3OCCc3c(C(O)C(C)(C)C)nn(C)c3C)cn12 (single isomer, unassigned) [Example 9, 1-(4-(2-(5-fluoro-2-(3-((methylamino)methyl)imidazo[1,2-a]pyridin-6-yl)phenoxy)ethyl)-1,5-dimethyl-1H-pyrazol-3-yl)-2,2-dimethylpropan-1-ol] | 0.6 | 0.26 | 8.02 | 
CNCc1cnc2ccc(-c3ccc(F)cc3OCCc3c(C(O)C(C)(C)C)nn(C)c3C)cn12 (single isomer, unassigned) [Example 10, 1-(4-(2-(5-fluoro-2-(3-((methylamino)methyl)imidazo[1,2-a]pyridin-6-yl)phenoxy)ethyl)-1,5-dimethyl-1H-pyrazol-3-yl)-2,2-dimethylpropan-1-ol] | 2 | 0.305 |  | Caco-2 B-A (Caco-2 cells): 8.89 ×10⁻⁶ cm/s
Cc1c(CCOc2c(-c3ccc4ncc(CN(C)C)n4c3)ccc(F)c2F)c(C(O)C(C)(C)C)nn1C (single isomer, unassigned) [Example 15, 1-(4-(2-(6-(3-((dimethylamino)methyl)imidazo[1,2-a]pyridin-6-yl)-2,3-difluorophenoxy)ethyl)-1,5-dimethyl-1H-pyrazol-3-yl)-2,2-dimethylpropan-1-ol] | 1.2 | 1.345 | 7.44 | 
Cc1c(CCOc2c(-c3ccc4ncc(CN(C)C)n4c3)ccc(F)c2F)c(C(O)C(C)(C)C)nn1C (single isomer, unassigned) [Example 16, 1-(4-(2-(6-(3-((dimethylamino)methyl)imidazo[1,2-a]pyridin-6-yl)-2,3-difluorophenoxy)ethyl)-1,5-dimethyl-1H-pyrazol-3-yl)-2,2-dimethylpropan-1-ol] | 0.2 | 1.395 |  | Caco-2 B-A (Caco-2 cells): 9.06 ×10⁻⁶ cm/s
Cc1c(CCOc2cc(F)ccc2-c2ccc3ncc(CN(C)C)n3c2)c(C(O)C(C)(C)C)nn1C (centres unmarked) [Example 11, 1-(4-(2-(2-(3-((dimethylamino)methyl)imidazo[1,2-a]pyridin-6-yl)-5-fluorophenoxy)ethyl)-1,5-dimethyl-1H-pyrazol-3-yl)-2,2-dimethylpropan-1-ol] |  | 15.9 | 78 | IC50 ([1]; Homo sapiens, SU-DHL10, 72 h): 0.9 nM
CNCc1cnc2ccc(-c3ccc(F)cc3OCCc3c(C(C)(C)O)nn(C)c3C)cn12 [Example 18, 2-(4-(2-(5-fluoro-2-(3-((methylamino)methyl)imidazo[1,2-a]pyridin-6-yl)phenoxy)ethyl)-1,5-dimethyl-1H-pyrazol-3-yl)propan-2-ol] |  | 0.3 | 21.1 | IC50 ([1]; Homo sapiens, SU-DHL10, 72 h): 5.3 nM
Cc1c(CCOc2cc(F)ccc2-c2ccc3ncc(CN(C)C)n3c2)c(C(C)(C)O)nn1C [Example 19, 2-(4-(2-(2-(3-((dimethylamino)methyl)imidazo[1,2-a]pyridin-6-yl)-5-fluorophenoxy)ethyl)-1,5-dimethyl-1H-pyrazol-3-yl)propan-2-ol] |  | 3.5 | 29.4 | 
Cc1c(CCOc2cc(F)ccc2-c2ccc3ncc(CCN)n3c2)c(C(C)(C)O)nn1C [Example 23, 2-(4-(2-(2-(3-(2-aminoethyl)imidazo[1,2-a]pyridin-6-yl)-5-fluorophenoxy)ethyl)-1,5-dimethyl-1H-pyrazol-3-yl)propan-2-ol] |  | 0 | 9.7 | 
sacituzumab |  |  |  | tumour volume compared to vehicle alone (Group 1) (JIMT-1 tumour cells; 2.5 mg/kg (Group 3), p=0.0586): no significant difference; ΔTGI (Study Day 28) (JIMT-1 tumour cells; [3]): 12.11%; tumour volume compared to vehicle alone (Group 1) (JIMT-1 tumour cells; 5 mg/kg (Group 2), p=0.0028): significant decrease; ΔTGI (Study Day 28) (JIMT-1 tumour cells; [4]): 14.44%; tumour volume, 5 mg/kg (Group 2) versus 2.5 mg/kg (Group 3) (JIMT-1 tumour cells; p=0.9837): no significant difference
sacituzumab govitecan |  |  |  | tumour volume compared to Groups 2 and 3 (unconjugated sacituzumab) (JIMT-1 tumour cells; 2.5 mg/kg (Group 5)): no significant difference; ΔTGI (Study Day 28) (JIMT-1 tumour cells; [3]): 13.13%; tumour volume compared to unconjugated sacituzumab Group 2 (5 mg/kg) and Group 3 (2.5 mg/kg) (JIMT-1 tumour cells; 5 mg/kg (Group 4)): significant decrease; ΔTGI (Study Day 28) (JIMT-1 tumour cells; [4]): 23.39%; tumour volumes compared to vehicle alone (Group 1) (JIMT-1 tumour cells; all concentrations tested (ADC Example 3: 2.5, 5, 10 mg/kg; sacituzumab govitecan: 5 and 2.5 mg/kg)): significant decrease

Source: patent US12599676B2, “Cytotoxic imidazo[1,2-A]pyridine compounds and their use in therapy” (MyricX Pharma Limited, priority 2022, dated 2026)
